Source: patent publication US7332512B2, “Halogenated nitrobutadienes for controlling animal pests” (priority 2001, dated 2008)

Tests used:
Format in all cases: in vivo
[1] = test system: Myzus persicae; assay: Critical concentration test/root-systemic action (Example K), compound mixed with soil, broad beans; conditions: 4 ppm in soil
Method: (§1) Critical Concentration Test/Root-Systemic Action
(§2) To produce a suitable preparation of active compound, 1 part by weight of active compound is mixed with the stated amount of solvent, the stated amount of emulsifier is added and the concentrate is diluted with water to the desired concentration.
The preparation of active compound is mixed intimately with the soil. Here, the concentration of the active compound in the preparation is virtually immaterial, only the amount by weight of active compound per volume unit of soil, which is stated in ppm ([…]) matters. The treated soil is filled into pots of a volume of 250 ml, and pregerminated broad beans are planted into these pots. In this way, the active compound can be taken up from the soil by the plant roots and be transported into the leaves.
The root-systemic action of the active compound is derived from the kill rate. It is 100% if all test animals have been killed and 0% if the number of test insects still alive is exactly the same as in the untreated control.

[2] = test system: adult Musca domestica, Reichswald strain (OP, SP, carbamate-resistant); assay: Test with flies (Musca domestica) (Example M), treated filter paper; conditions: time of reading not given
Method: Test with Flies (Musca domestica)
(§3) 20 mg of active compound are dissolved in 1 ml of dimethyl sulphoxide, more dilute concentrations are prepared by dilution with dist. H2O.
2 ml of this active compound preparation are pipetted onto filter paper discs (Ø 9.5 cm) in Petri dishes of corresponding dimensions. After the filter discs have been dried, 25 test animals are transferred into the Petri dishes, which are then covered.
After 1, 3, 5, 24 and 48 hours, the activity of the active compound preparation is determined. 100% means that all flies have been killed; 0% means that none of the flies have been killed.

[3] = test system: green peach aphid (Myzus persicae); assay: Myzus test (Example G), infested cabbage leaves dipped; conditions: 500 ppm active compound, 6 days
Method: (§4) To produce a suitable preparation of active compound, 1 part by weight of active compound is mixed with the stated amounts of solvent and emulsifier, and the concentrate is diluted with emulsifier-containing water to the desired concentration.
Cabbage leaves (Brassica oleracea), which are heavily infested by the green peach aphid (Myzus persicae) are treated by being dipped into the preparation of active compound of the desired concentration.
(§5) After the desired period of time, the kill in % is determined. 100% means that all aphids have been killed; 0% means that none of the aphids have been killed.

[4] = test system: green peach aphid (Myzus persicae); assay: Myzus test (Example A), infested broad bean seedlings dipped; conditions: 500 ppm active compound, 6 days
Method: To produce a suitable preparation of active compound, 1 part by weight of active compound is mixed with the stated amounts of solvent and emulsifier, and the concentrate is diluted with water to the desired concentration.
Broad bean seedlings (Vicia faba minor) which are infested by the green peach aphid (Myzus persicae) are dipped into a preparation of active compound of the desired concentration and placed into a plastic box.
(§6) After the desired period of time, the kill in % is determined. 100% means that all animals have been killed; 0% means that none of the animals have been killed.

[5] = test system: larvae of the mustard beetle (Phaedon cochleariae); assay: Phaedon larvae test (Example H), dipped cabbage leaves; conditions: 500 ppm active compound; 6 days
Method: as §4
(§7) Cabbage leaves (Brassica oleracea) are treated by being dipped into the preparation of active compound of the desired concentration and are populated with larvae of the mustard beetle (Phaedon cochleariae) while the leaves are still moist.
(§8) After the desired period of time, the kill in % is determined. 100% means that all beetle larvae have been killed; 0% means that none of the beetle larvae have been killed.

[6] = test system: Aphis gossypii; assay: Critical concentration test/root-systemic action (Example E), soil drench; conditions: 20 ppm in soil; 10 days; root-systemic; savoy cabbage
Method: as §1, §2
(§9) The preparation of active compound is poured onto the soil of the infected savoy cabbage plant. In this way, the active compound can be taken up from the soil by the roots of the plants and can be transported into the leaves. Here, the concentration of active compound in the preparation is virtually immaterial, only the amount by weight per volume unit of soil, which is stated in ppm ([…]), matters.
(§10) The root-systemic action of the active compound is derived from the kill rate. It is 100% if all test animals have been killed and 0% if the number of test insects alive is the same as that for the untreated control.

[7] = test system: eggs of the diamondback moth (Plutella xylostella); assay: Plutella test (Example C), synthetic feed; conditions: 150 ppm active compound; 7 days; kill of eggs and/or larvae
Method: To produce a suitable preparation of active compound, 1 part by weight of active compound is mixed with the stated amount of solvent and the concentrate is diluted with methanol to the desired concentrations.
The stated amount of the preparation of active compound of the desired concentration is pipetted onto a standardized amount of synthetic feed. After the methanol has evaporated, about 200-300 eggs of the diamondback moth (Plutella xylostella) are placed onto the feed.
After the desired period of time, the kill of the eggs and/or larvae in % is determined. 100% means that all animals have been killed; 0% means that none of the animals have been killed.

[8] = test system: eggs, larvae and pupae of the white fly (Bemisia tabaci); assay: Bemisia test (Example I), infected cotton plants dipped; conditions: 500 ppm active compound; 6 days
Method: To produce a suitable preparation of active compound, 1 part by weight of active compound is mixed with the stated amounts of solvent and emulsifier, and the concentrate is diluted with water to the desired concentrations.
Cotton plants (Gossypium hirsutum) infected by eggs, larvae and pupae of the white fly (Bemisia tabaci) are dipped into a preparation of active compound of the desired concentration.
as §6

[9] = test system: Myzus persicae; assay: Critical concentration test/root-systemic action (Example F), soil drench; conditions: 20 ppm in soil; 10 days; root-systemic; savoy cabbage
Method: as §1, §2, §9, §10

[10] = test system: Adults of Ctenocephalides felis; assay: Test with cat fleas/oral uptake (Example L); conditions: orally, 28 h
Method: Test with Cat Fleas/Oral Uptake
To produce a suitable formulation, a suitable solution of active compound is prepared from 20 mg of active compound and 1 ml of DMSO. 15 μl of this formulation are added to 3 ml of citrated cattle blood and stirred.
10 unfed adult fleas (Ctenocephalides felis, strain “Georgi”) are placed into a chamber (Ø 3.2 cm) whose top and bottom are closed with gauze. A metal cylinder whose underside is covered with parafilm is placed onto the chamber. The cylinder contains the 3 ml of blood/active compound formulation which can be taken up by the fleas through the paraffin membrane. Whereas the blood is warmed to 37° C., the temperature in the area of the flea chambers is adjusted to 25° C. Controls are mixed with the same volume of DMSO, without addition of a compound. The determinations are carried out in triplicate.
After 28 h, the mortality in % (=dead fleas) is determined.
Compounds which effect at least 25% kill of the fleas within 28 h are judged to be effective.

[11] = test system: cotton aphid (Aphis gossypii); assay: Aphis gossypii test (Example D), infested cotton leaves dipped; conditions: 500 ppm active compound; 6 days
Method: as §4
Cotton leaves (Gossypium hirsutum) which are heavily infested by the cotton aphid (Aphis gossypii) are treated by being dipped into the preparation of active compound of the desired concentration.
as §5

[12] = test system: Lucilia cuprina larvae; assay: Blowfly larvae test/development-inhibitory action (Example N); conditions: 48 h
Method: Blowfly Larvae Test/Development-Inhibitory Action
as §3
About 20 Lucilia cuprina larvae are introduced into a test tube which contains about 1 cm^3 of horse meat and 0.5 ml of the preparation of active compound to be tested. After 24 and 48 hours, the efficacy of the preparation of active compound is determined. The test tubes are transferred into a beaker whose bottom is covered with sand. After a further 2 days, the test tubes are removed and the pupae are counted.
The efficacy of the preparation of active compound is assessed by the number of flies that have hatched after 1.5 times the period of development of an untreated control. 100% means that no flies have hatched; 0% means that all flies have hatched normally.

[13] = test system: larvae of the mustard beetle (Phaedon cochleariae); assay: Phaedon larvae test (Example B), dipped cabbage leaves; conditions: 100 ppm active compound; 6 days
Method: as §4, §7, §8

[14] = test system: caterpillars of the armyworm (Spodoptera frugiperda); assay: Spodoptera frugiperda test (Example J), dipped cabbage leaves; conditions: 500 ppm active compound; 7 days; % only printed in method b344
Method: Spodoptera frugiperda Test
as §4
Cabbage leaves (Brassica oleracea) are treated by being dipped into the preparation of active compound of the desired concentration and are populated with caterpillars of the armyworm (Spodoptera frugiperda) while the leaves are still moist.
After the desired period of time, the kill in % is determined. 100% means that all caterpillars have been killed; 0% means that none of the caterpillars have been killed.

| Structure (SMILES) | % kill after weeks ([1]; after 2 weeks) [%] | % kill after weeks ([1]; after 3 weeks) [%] | % kill after weeks ([1]; after 4 weeks) [%] | Kill rate in % after 6 d (days) [3] [%] | Kill rate in % after 6 d (days) [4] [%] | Kill rate in % after 6 d (days) [5] [%] | Kill rate in % after 10 d (days) [6] [%] | Kill rate in % after 6 d (days) [8] [%] | Kill rate in % after 10 d (days) [9] [%] | % action/kill ([10]; 20 ppm in cattle blood) [%] | % action/kill ([10]; 100 ppm in cattle blood) [%] | % action/kill ([12]; 20 ppm) [%] | % action/kill ([12]; 100 ppm) [%] | also measured |
| --- | --- | --- | --- | --- | --- | --- | --- | --- | --- | --- | --- | --- | --- | --- |
| O=[N+]([O-])/C(C(=C(Cl)Cl)N1CCOCC1)=C1\NCCN1Cc1ccc(Cl)nc1 [Example I-2, 2-chloro-5-[2-(2-morpholinyl-3,3-dichloro-1-nitro-allylidene)imidazolidin-1-ylmethyl]pyridine] | 100 | 100 | 99 | 100 | 100 | 100 | 100 | 100 | 100 | 80 | 80 | 0 | 100 | % action/kill ([2]; 20 ppm): 0%; % action/kill ([2]; 100 ppm): 50%; Kill rate in % after 7 d (days) [7]: 100%; % action/kill ([10]; 0.8 ppm in cattle blood): 0%; % action/kill ([10]; 4 ppm in cattle blood): 0%; Kill rate in % after 6 d (days) [11]: 100%; Kill rate in % after 6 d (days) [13]: 100% |
| O=[N+]([O-])/C(C(=C(Cl)Cl)N1CCSCC1)=C1\NCCN1Cc1ccc(Cl)nc1 [Example I-11] | – | – | – | 100 | – | 100 | – | – | – | 0 | 70 | 0 | 100 | – |
| Cc1ccc(SC(=C(Cl)Cl)C(=C2NCCN2Cc2ccc(Cl)nc2)[N+](=O)[O-])cc1 [Example I-3, 2-chloro-5-[2-(2-(p-tolylthio)-3,3-dichloro-1-nitroallylidene)imidazolidin-1-ylmethyl]pyridine] | – | – | – | – | – | – | – | – | – | 0 | 50 | – | – | – |
| O=[N+]([O-])/C(C(=C(Cl)Cl)N1CCCC1)=C1\NCCN1Cc1ccc(Cl)nc1 [Example I-10] | – | – | – | – | – | – | – | 100 | – | 40 | 100 | – | – | – |
| CN(C(=C(Cl)Cl)/C(=C1/NCCN1Cc1ccc(Cl)nc1)[N+](=O)[O-])C(C)(C)C [Example I-12] | – | – | – | – | – | – | – | – | – | 30 | 70 | 0 | 100 | Rate of activity after 7 d (days) [14]: 100% |
| O=[N+]([O-])/C(C(Cl)=C(Cl)Cl)=C1\NCCN1Cc1ccc(Cl)nc1 [Example I-1, 2-chloro-5-[2-(2,3,3-trichloro-1-nitroallylidene)imidazolidin-1-ylmethyl]pyridine] | 100 | 100 | 99 | – | 100 | – | 100 | – | 100 | – | – | 0 | 100 | % kill after weeks ([1]; after 5 weeks): 100% |
